Data set [1] has as its target human TLR7 (hTLR7) (Homo sapiens (Human), UniProt Q9NYK1). The data set is described as follows: HEK TLR7 assay (HEK-Blue hTLR7 cells, NF-kB/AP-1 SEAP reporter). As to conditions: HEK-Blue hTLR7 cells, 16 h incubation, SEAP read at 620-655 nm. It is filed as cell-based. From the text:
HEK-Blue™ TLR7 cells were purchased from Invivogen (San Diego, Calif.). The following description was taken from the product information sheet.
“HEK-Blue™ hTLR7 cells are designed for studying the stimulation of human TLR7 (hTLR7) by monitoring the activation of NF-kB. HEK-Blue™ hTLR7 cells were obtained by co-transfection of the hTLR7 gene and an optimized secreted embryonic alkaline phosphatase (SEAP) reporter gene into HEK293 cells. The SEAP reporter gene is placed under the control of the IFN-b minimal promoter fused to five NF-kB and AP-1-binding sites. Stimulation with a TLR7 ligand activates NF-kB and AP-1 which induce the production of SEAP, which is detected by the HEK-Blue™ Detection cell culture medium.”
A typical assay protocol involved the following steps: • 1. Cells were cultured according to the product information sheet. • 2. 10 mM compound stock in DMSO were first diluted to 3 mM and then 3-fold serially diluted using DMSO to afford a 10-pt dilution. • 3. 3 μl of the diluted DMSO were added to 57 μl HEK-Blue™ Detection media for a further 20-fold dilution. • 4. 10 μl of the diluted compound in assay media were added into 40 μl cell culture (in HEK-Blue™ Detection media) in 384-well plate. Final cell concentration=8,000 cells per well. • 5. The plates were incubated at 37° C. in 5% CO2 for 16 h. SEAP was determined using a spectrophotometer at 620-655 nm.

A short description of data set [2]: Pharmacokinetics experiments: mouse liver-to-serum concentration (L:S). It is filed as in vivo. As to conditions: BALB/c mice, 10 mg/kg p.o., 5 hour post dose. Here is the method: BALB/c mice were dosed p.o. with 10 mg/kg compound formulated in 0.5% carboxy methycellulose+0.5% Tween-80 suspension. Mice were bled retro-orbitally at different time points post dose. Blood was processed into serum by centrifugation followed by protein precipitation, reverse-phase gradient elution and MRM detection via ESI+mass spectrometry to determine compound concentration. Animals were sacrificed after the final blood collection (5 hour), liver removed and flash frozen in liquid nitrogen for tissue PK analyses. The liver-to-serum concentration (L:S) at 5 hour post dose is one parameter for identifying compounds with potential enrichment in liver.
Mouse liver-to-serum concentration (L:S) table below provides results.

Chain of human TLR7 (hTLR7) (Q9NYK1 27-1049): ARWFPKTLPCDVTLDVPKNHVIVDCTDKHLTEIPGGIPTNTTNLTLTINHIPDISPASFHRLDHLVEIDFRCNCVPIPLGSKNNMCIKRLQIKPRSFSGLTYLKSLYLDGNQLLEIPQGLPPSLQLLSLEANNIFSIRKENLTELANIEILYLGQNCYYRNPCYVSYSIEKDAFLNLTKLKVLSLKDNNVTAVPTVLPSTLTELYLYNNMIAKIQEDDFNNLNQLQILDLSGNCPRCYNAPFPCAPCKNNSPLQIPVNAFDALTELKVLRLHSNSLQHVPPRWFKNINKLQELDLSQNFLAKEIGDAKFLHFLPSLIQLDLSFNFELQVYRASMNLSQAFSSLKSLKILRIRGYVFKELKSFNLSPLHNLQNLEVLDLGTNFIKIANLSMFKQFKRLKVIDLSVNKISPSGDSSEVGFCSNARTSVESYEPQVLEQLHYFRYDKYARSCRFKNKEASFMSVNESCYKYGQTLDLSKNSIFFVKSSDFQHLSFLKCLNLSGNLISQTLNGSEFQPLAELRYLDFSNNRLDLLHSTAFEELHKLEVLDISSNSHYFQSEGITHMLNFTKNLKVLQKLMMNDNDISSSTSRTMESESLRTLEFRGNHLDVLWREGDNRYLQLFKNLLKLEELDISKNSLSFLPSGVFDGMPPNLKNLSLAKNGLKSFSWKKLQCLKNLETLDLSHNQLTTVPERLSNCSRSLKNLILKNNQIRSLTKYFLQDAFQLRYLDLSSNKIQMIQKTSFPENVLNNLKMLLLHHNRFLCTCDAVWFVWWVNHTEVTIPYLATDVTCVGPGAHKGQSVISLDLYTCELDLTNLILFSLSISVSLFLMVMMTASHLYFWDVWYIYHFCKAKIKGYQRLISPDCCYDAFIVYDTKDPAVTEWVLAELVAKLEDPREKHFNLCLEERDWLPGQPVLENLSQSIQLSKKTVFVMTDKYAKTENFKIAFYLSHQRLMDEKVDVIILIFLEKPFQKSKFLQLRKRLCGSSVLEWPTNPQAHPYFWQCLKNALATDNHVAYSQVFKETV

One may read the EC50 as the concentration that produces a half-maximal response. A low value points to a more potent agent. With `CCCCNc1nc(N)nc(C)c1Cc1ccc(CCC(=O)O)cc1OC` [Compound 1, 3-(4-((2-amino-4-(butylamino)-6-methylpyrimidin-5-yl)methyl)-3-methoxyphenyl)propanoic acid], the concentration for a half-maximal effect (EC50) in data set [1] was 1000 to 10000 nM.

With `CCCCNc1nc(N)nc(C)c1Cc1ccc(Cc2nn[nH]n2)cc1OC` [Compound 2, 5-(4-((2H-tetrazol-5-yl)methyl)-2-methoxybenzyl)-N4-butyl-6-methylpyrimidine-2,4-diamine], the concentration giving a half-maximal response (EC50) in data set [1] lay in the range of 1000 to 10000 nM.

In the case of `CCCCNc1nc(N)nc(C)c1Cc1cc(Cc2nn[nH]n2)ccc1OC` [Compound 3, 5-(5-((2H-tetrazol-5-yl)methyl)-2-methoxybenzyl)-N4-butyl-6-methylpyrimidine-2,4-diamine], in data set [1], the half-maximal effective concentration (EC50) was in the range of 100 to 1000 nM. Besides, the “L:S at 5 hr (liver-to-serum concentration)” value (shortened to “L:S at 5 hr”) in data set [2] is reported as “A (A = >100 represents high liver-enrichment)”.

For `CCCCNc1nc(N)nc(C)c1Cc1cc(CCC(=O)O)ccc1OC` [Compound 4, 3-(3-((2-amino-4-(butylamino)-6-methylpyrimidin-5-yl)methyl)-4-methoxyphenyl)propanoic acid], the EC50 in data set [1] lay in the range of 1000 to 10000 nM.

In turn, `CCCCNc1nc(N)nc(C)c1Cc1cc(Cc2nnn(CC(=O)O)n2)ccc1OC` [Compound 5, 2-(5-(3-((2-amino-4-(butylamino)-6-methylpyrimidin-5-yl)methyl)-4-methoxybenzyl)-2H-tetrazol-2-yl)acetic acid] registered an EC50 in data set [1] of 1000 to 10000 nM.

Molecule `CCCCNc1nc(N)nc(C)c1Cc1cc(Cc2nnnn2CC(=O)O)ccc1OC` [Compound 6, 2-(5-(3-((2-amino-4-(butylamino)-6-methylpyrimidin-5-yl)methyl)-4-methoxybenzyl)-1H-tetrazol-1-yl)acetic acid] yielded an EC50 in data set [1] of 1000 to 10000 nM.

As to `CCCCNc1nc(N)nc(C)c1Cc1cc(CP(=O)(O)O)ccc1OC` [Compound 7, (3-((2-amino-4-(butylamino)-6-methylpyrimidin-5-yl)methyl)-4-methoxybenzyl)phosphonic acid], the 50% effective concentration (EC50) in data set [1] was 1000 to 10000 nM.

For `CCC[C@@H](CO)Nc1nc(N)nc(C)c1Cc1cc(Cc2nn[nH]n2)ccc1OC` [Compound 8, (S)-2-((5-(5-((2H-tetrazol-5-yl)methyl)-2-methoxybenzyl)-2-amino-6-methylpyrimidin-4-yl)amino)pentan-1-ol], in data set [1], the EC50 fell in the range of 100 to 1000 nM.

On to `CCCCNc1nc(N)nc(C)c1Cc1cc(C2(C(=O)O)CC2)ccc1OC` [Compound 14, 1-(3-((2-amino-4-(butylamino)-6-methylpyrimidin-5-yl)methyl)-4-methoxyphenyl)cyclopropane-1-carboxylic acid], for which the concentration for a half-maximal effect (EC50) in data set [1] was 1000 to 10000 nM.

`CCCCNc1nc(N)nc(C)c1Cc1cc(C(=O)NCCS(=O)(=O)O)ccc1OC` [Compound 16, 2-(3-((2-amino-4-(butylamino)-6-methylpyrimidin-5-yl)methyl)-4-methoxybenzamido)ethane-1-sulfonic acid] displayed an EC50 in data set [1] of 100 to 1000 nM.

`CCCCNc1nc(N)nc(CCC(=O)O)c1CCc1ccc(OC)cc1` [Compound 19, 3-(2-amino-6-(butylamino)-5-(4-methoxyphenethyl)pyrimidin-4-yl)pro-panoic acid]: the EC50 in data set [1] is 1000 to 10000 nM.

In turn, `CCCC[C@H](CC(=O)O)Nc1nc(N)nc(C)c1Cc1cc(Cc2nn[nH]n2)ccc1OC` [Compound 20C, (R)-3-((5-(5-((2H-tetrazol-5-yl)methyl)-2-methoxybenzyl)-2-amino-6-methylpyrimidin-4-yl)amino)heptanoic acid] displayed an EC50 in data set [1] of 1000 to 10000 nM.

`CCCC[C@@H](CCO)Nc1nc(N)nc(CCC(=O)O)c1OC` [Compound 21, (S)-3-(2-amino-6-((1-hydroxyheptan-3-yl)amino)-5-methoxypyrimidin-4-yl)propanoic acid] returned an EC50 in data set [1] of 1000 to 10000 nM.

For the molecule `CCCC[C@@H](CCSC)Nc1nc(N)nc(C)c1Cc1cc(Cc2nn[nH]n2)ccc1OC` [Compound 22, (S)-5-(5-((2H-tetrazol-5-yl)methyl)-2-methoxybenzyl)-6-methyl-N^4-(1-(methylthio)heptan-3-yl)pyrimidine-2,4-diamine], the “L:S at 5 hr” value in data set [2] is “A (A = >100 represents high liver-enrichment)”.

For `CCCC[C@@H](CCS(C)(=O)=O)Nc1nc(N)nc(C)c1Cc1cc(Cc2nn[nH]n2)ccc1OC` [Compound 23, (S)-5-(5-((2H-tetrazol-5-yl)methyl)-2-methoxybenzyl)-6-methyl-N^4-(1-(methylsulfonyl)heptan-3-yl)pyrimidine-2,4-diamine], the “L:S at 5 hr” value in data set [2] is listed as “A (A = >100 represents high liver-enrichment)”.

For `CCCCNc1nc(N)nc(C)c1Cc1cc(C(=O)NCCCC(=O)O)ccc1OC` [Compound 25, 4-(3-((2-amino-4-(butylamino)-6-methylpyrimidin-5-yl)methyl)-4-methoxybenzamido)butanoic acid], in data set [1], the EC50 fell in the range of 100 to 1000 nM.

Molecule `CCCCCNc1nc(N)nc(C)c1Cc1cc(Cc2nn[nH]n2)ccc1OC` [Compound 26, 5-(5-((2H-tetrazol-5-yl)methyl)-2-methoxybenzyl)-6-methyl-M-pentylpyrimidine-2,4-diamine] showed a concentration for a half-maximal effect (EC50) in data set [1] of 100 to 1000 nM.

As for `CCCC[C@@H](CCO)Nc1nc(N)nc(CCC(=O)O)c1Cc1ccccc1OC` [Compound 27, (S)-3-(2-amino-6-((1-hydroxyheptan-3-yl)amino)-5-(2-methoxybenzyl)-pyrimidin-4-yl)propanoic acid], the EC50 in data set [1] lay in the range of 100 to 1000 nM.

`CCCCNc1nc(N)nc(C)c1Cc1cc(C(=O)NCCCc2nn[nH]n2)ccc1OC` [Compound 28, N-(3-(2H-tetrazol-5-yl)propyl)-3-((2-amino-4-(butylamino)-6-methyl-pyrimidin-5-yl)methyl)-4-methoxybenzamide]: the concentration giving a half-maximal response (EC50) in data set [1] is 1000 to 10000 nM.

Regarding `CCCCNc1nc(N)nc(C)c1Sc1cc(Cc2nn[nH]n2)ccc1OC` [Compound 31, 5-((5-((2H-tetrazol-5-yl)methyl)-2-methoxyphenyl)thio)-N^4-butyl-6-methylpyrimidine-2,4-diamine], the EC50 in data set [1] was in the range of 1000 to 10000 nM.

In data set [1], `CCCC[C@@H](CCc1nn[nH]n1)Nc1nc(N)nc(C)c1Cc1ccccc1OC` [Compound 36, (S)—N^4-(1-(2H-tetrazol-5-yl)heptan-3-yl)-S-(2-methoxybenzyl)-6-methylpyrimidine-2,4-diamine] had an EC50 of 100 to 1000 nM.

In data set [1], `CCCCNc1nc(N)nc(CCc2nn[nH]n2)c1Cc1ccccc1OC` [Compound 37, 6-(2-(2H-tetrazol-5-yl)ethyl)-N^4-butyl-5-(2-methoxybenzyl)pyrimidine-2,4-diamine] yielded an EC50 of 100 to 1000 nM.

The molecule `CCCC[C@@H](CCSC)Nc1nc(N)nc(CCC(=O)O)c1Cc1ccccc1OC` [Compound 38, (S)-3-(2-amino-5-(2-methoxybenzyl)-6-((1-(methylthio)heptan-3-yl)amino)pyrimidin-4-yl)propanoic acid] came in with an EC50 in data set [1] of less than 100 nM.

Regarding `CCCC(C)Nc1nc(N)nc(C)c1Cc1cc(Cc2nn[nH]n2)ccc1OC` (stereo not drawn) [Compound 39, 5-(5-((2H-tetrazol-5-yl)methyl)-2-methoxybenzyl)-6-methyl-N^4-(pentan-2-yl)pyrimidine-2,4-diamine], the EC50 in data set [1] fell in the range of 100 to 1000 nM.

Molecule `CCCCNc1nc(N)nc(CCCO)c1Cc1ccccc1OC` [Compound 47, 3-(2-amino-6-(butylamino)-5-(2-methoxybenzyl)pyrimidin-4-yl)propan-1-ol] registered a 50% effective concentration (EC50) in data set [1] of 100 to 1000 nM.

Turning to `CCCC[C@@H](CCSC)Nc1nc(N)nc(CCC(=O)O)c1Cc1cc(Cc2nn[nH]n2)ccc1OC` [Compound 48, (S)-3-(5-(5-((2H-tetrazol-5-yl)methyl)-2-methoxybenzyl)-2-amino-6-((1-(methylthio)-heptan-3-yl)amino)pyrimidin-4-yl)propanoic acid], the EC50 in data set [1] was less than 100 nM.

Regarding `CCCC[C@@H](CCOC)Nc1nc(N)nc(CCC(=O)O)c1Cc1cc(Cc2nn[nH]n2)ccc1OC` [Compound 49, (S)-3-(5-(5-((2H-tetrazol-5-yl)methyl)-2-methoxybenzyl)-2-amino-6-((1-methoxyheptan-3-yl)amino)pyrimidin-4-yl)propanoic acid], the EC50 in data set [1] lay within 100 to 1000 nM.

As for `CCCC[C@@H](CCS(C)(=O)=O)Nc1nc(N)nc(CCC(=O)O)c1Cc1cc(CC(=O)O)ccc1OC` [Compound 50, (S)-3-(2-amino-5-(5-(carboxymethyl)-2-methoxybenzyl)-6-((1-(methylsulfonyl)heptan-3-yl)amino)pyrimidin-4-yl)propanoic acid], in data set [1], the EC50 was 100 to 1000 nM.

The molecule `CCCC[C@@H](CCS(C)(=O)=O)Nc1nc(N)nc(C)c1Cc1cc(CC(=O)O)ccc1OC` [Compound 51, (S)-2-(3-((2-amino-4-methyl-6-((1-(methylsulfonyl)heptan-3-yl)amino)pyrimidin-5-yl)methyl)-4-methoxyphenyl)acetic acid] yielded an EC50 in data set [1] of 100 to 1000 nM.

The values above are taken from US10287253B2, “Substituted pyrimidines containing acidic groups as TLR7 modulators” (Apros Therapeutics, Inc., priority 2016, dated 2019).
